4 molecules from publication PMC10150365 (Journal of Medicinal Chemistry, 2023) can be followed below.

In brackets after ≈: the same amount, converted by molar mass. Several values for one entry are separate records, joined by “and”; a condition that tells them apart may be missing. Equal entries are not always repeated. Where two headings read alike, the source gives them in different places. Marks after values point to notes of the source that are not given here.

Series [1] in a line: Rat blood PK (Sprague-Dawley). It is filed as in vivo. The settings on record: SD rats.
The nature of series [2]: Free fraction in CellTiter-Blue assay medium (dialysis). It is filed as in vitro ADME. The settings on record: dialysis from CellTiter-Blue assay medium; 90% CI. (Resazurin is reduced to fluorescent resorufin, in cell work by metabolically active cells.)
A short description of series [3]: Plasma protein binding and blood-to-plasma ratio. It is filed as in vitro ADME, mouse.
The nature of series [4]: Plasma protein binding and blood-to-plasma ratio. It is filed as in vitro ADME, rat.
The nature of a further series: Plasma stability. It is filed as in vitro ADME. The following applies: pooled plasma, read-out: Compound remaining (% of 0 min); for remaining at 15 min, 1 µM: 37 °C. As for the experimental part: AUCu0-24h was assumed from the mouse efficacy study. […] F=oral bioavailability and
Compd Species Compound remaining (% of 0 min)

Series [5] can be described thus: in vitro. The following applies: human; for recovery: Caco-2, pH 7.4, Recovery.
The nature of series [6]: Plasma protein binding and blood-to-plasma ratio. The following applies: for fub: BALB/c mouse blood, fub = fup/B:P; for Plasma, fup: BALB/c mouse, 90% CI.
A further series relates to SK-OV-3. Kind of series: cells. The series is classed as cell-based, human. The following applies: for GI50: Homo sapiens.
Series [7] can be described thus: in vitro. It is filed as in vitro ADME, mouse.
Series [8] in a line: in vitro. It is filed as in vitro ADME. The settings on record: male, Sprague Dawley, rat, microsomes, pH 7.4; n = 1, fraction unbound assumed 1; read-out: Microsome Clint, rat (RLM).
Series [9] is described as follows: in vitro. The series is classed as in vitro ADME. The settings on record: both sexes, human, microsomes, pH 7.4; n = 1, fraction unbound assumed 1; read-out: Microsome Clint, human (HLM).
Series [10] is described as follows: in vitro. It is filed as in vitro ADME. The settings on record: mouse.
Series [11] can be described thus: iv PK in CF1 wild-type and P-gp-knockout mice. The series is classed as in vivo, mouse. The settings on record: mouse, in vivo, iv, 5 mg/kg, read-out: Vss.
The next series relates to P-gp. The experiment in a line: iv PK in CF1 wild-type and P-gp-knockout mice. It is filed as in vivo, mouse. The following applies: for Cltb: 5 mg/kg iv, 90% CI, 5 mg/kg.
Series [12] concerns P-gp-mediated efflux (CH1^doxR/CH1^WT). The series is classed as cell-based, human. The following applies: ratio of geometric mean GI50 values, CellTiter-Blue.
Series [13] in a line: physchem. The settings on record: pH 7.4.
Series [14] in a line: physchem. The settings on record: pH 7.4. The source holds these as a separate data set.
The test system of a further series is CH1^WT. Kind of series: CH1 WT growth inhibition, CellTiter-Blue. The series is classed as cell-based. The following applies: Homo sapiens, CH1WT.
In another series the test system is CH1^doxR. The experiment in a line: CH1doxR growth inhibition, CellTiter-Blue. The series is classed as cell-based, human.
The next series deals with OVCAR5. The following applies: OVCAR5, 96 h.
In a further series the test system is PA1. The following applies: PA1, 96 h.
Another series concerns RMG-1. The following applies: RMG-1, 96 h.
For series [15], the system named is human ovarian cancer cell lines. The following applies: carboplatin N = 4 cell lines; 1 N = 9 cell lines.
The mark [16] stands for this setting: female, BALB/c, mouse, in vivo, po, 5 mg/kg.

A word on the Cmax: it is the peak of the concentration-time curve. A word on the bioavailability: it is the share of a dose that reaches the circulation, judged against a reference dose that is usually intravenous. As usually defined, the Tmax is the time at which the peak concentration occurs. One may read the half-life as the time needed for the level to fall by half in the phase considered. The term AUC denotes concentration integrated over time. A word on the Papp A→B: it is the apparent permeability from the apical to the basolateral side of a cell layer. `Cc1ccc(NC(=O)c2ccc3c(c2)OCCO3)cc1NC(=O)c1ccc2nc(OCCN3CCCC3)ccc2c1` [Compound 1] came in with an Fmax in [1] of 71%. Besides, the “iv Cltb” value in series [1] (iv) worked out at 20 mL/min/kg. Further, the “Free Cav^0–24h” value in [1] (po (Table S12)) is listed as 0.72 nM. For the same molecule, in [1] (Vss/fub), the Vdu is given as 230 L/kg. In addition, the peak level in series [1] (female, Sprague-Dawley (CD), rat, whole blood, 5 mg/kg, po) (Cmax) was 63 nM. In series [1] (female, Sprague-Dawley (CD), rat, whole blood, po, 5 mg/kg), this molecule displayed a bioavailability at 24 h of 11%. Also, the Vd in series [1] (female, Sprague-Dawley (CD), rat, whole blood, iv, read-out: Vss) is 4.4 L/kg. Also, the Tmax in [1] (female, Sprague-Dawley, rat, whole blood, 5 mg/kg, po) is above 6 h. Further, the half-life in series [1] (female, Sprague-Dawley, rat, whole blood, 5 mg/kg, terminal, from iv dose) is 192 min. Further, the AUC in [1] (female, Sprague-Dawley, rat, whole blood, po, 5 mg/kg, po, t = 24 h, read-out: po AUC^0–t) worked out at 0.84 µM·h. Also, in series [2], the “Assay medium, fua” value is on record as 0.47 (0.54-0.42). Besides, the fub in series [3] (athymic mouse blood, fub = fup/B:P) is 0.015; in series [4] (Sprague Dawley rat blood, fub = fup/B:P), 0.019; in series [6], 0.0083. Moreover, the “Plasma, fup” value in series [3] (athymic mouse, 90% CI) is 0.025 (0.031-0.020); in series [4] (Sprague Dawley rat, 90% CI) it was 0.029 (0.036-0.023); in [6], 0.010. Further, the fraction remaining at 15 min, 1 µM in the series “Plasma stability” (human plasma) came out at 104%; in the series “Plasma stability” (mouse plasma), 97.8%. Besides, the amount remaining at 30 min, 1 µM in “Plasma stability” (human plasma) is 96.4%; in the series “Plasma stability” (mouse plasma), 91.3%. Moreover, the share remaining at 60 min, 1 µM stood at 97% in “Plasma stability” (human plasma) and 93.3% in the series “Plasma stability” (mouse plasma). The share remaining at 120 min, 1 µM in “Plasma stability” (human plasma) came to 95.1%; in “Plasma stability” (mouse plasma), 85.9%. The molecule also had an A2B with Caco-2 (geometric mean) of 2.4 nm/s. Further, the B2A was 39 nm/s in the series with Caco-2 (geometric mean); 23 nm/s and 46 nm/s and 55 nm/s in the series on Caco-2 (individual experiments). For the same molecule, the “A2B + LY335979” value in the series with Caco-2 (individual experiments) is 2.3 nm/s. Also, the “B2A + LY335979” value in the series on Caco-2 (individual experiments) is given as 15 nm/s. Besides, in the series “in vitro [5]” (Caco-2, pH 7.4), the Papp A→B at 2 h, 10 µM was 2.4 ×10⁻⁶ cm/s. The recovery in “in vitro [5]” (A2B + LY335979, geometric mean row) stood at 50%; in “in vitro [5]” (A2B + LY335979, individual experiments), 50%; in “in vitro [5]” (A2B, geometric mean row), 90%; in the series “in vitro [5]” (A2B, individual experiments) it was 90%; in “in vitro [5]” (B2A + LY335979, geometric mean row), 100%; in the series “in vitro [5]” (B2A + LY335979, individual experiments) it was 100%. Further, the recovery was determined as 70% in the series “in vitro [5]” (B2A, geometric mean row) and 70% in the series “in vitro [5]” (B2A, individual experiments).
Usually chromatographic logD stands for a lipophilicity value derived from retention on a column. Lower therefore signals a more hydrophilic compound. As usually defined, the solubility (kinetic) is the concentration staying in solution when a stock, usually in DMSO, is diluted into the medium. In the case of `Cc1ccc(NC(=O)c2ccc3c(c2)OCCO3)cc1NC(=O)c1ccc2nc(CN3CCN(C(C)C)CC3)ccc2c1` [Compound 16, N-(5-(2,3-Dihydrobenzo[b][1,4]dioxine-6-carboxamido)-2-methylphenyl)-2-((4-isopropylpiperazin-1-yl)methyl)quinoline-6-carboxamide], the GI50 is 8.71 nM in the series on SK-OV-3 (SK-OV-3, 96 h, read-out: SK-OV-3 pGI50 ± SEM (n) (converted)) and 8.8 nM with SK-OV-3 (SK-OV-3, 96 h, CellTiter-Blue, geometric mean, read-out: SK-OV-3 GI50). Moreover, the microsomal CLint in the series “in vitro [7]” (male, CD1, mouse, microsomes, pH 7.4, n = 1, fraction unbound assumed 1, read-out: Microsome Clint, mouse (MLM)) turned out to be 10 µL/min/mg. Further, the “Pred. in vivo CLu from MLM” value in “in vitro [7]” (scaling factors, well-stirred model) is 39 mL/min/kg. The microsomal CLint at 0.75 h, 1 µM was 7 µL/min/mg in the series “in vitro [8]” and 43 µL/min/mg in the series “in vitro [9]”. In “in vitro [10]” (hepatocytes, n = 1, read-out: Mouse Heps CLint), the hepatocyte CLint at 1 h, 1 µM worked out at 20 µL/min/1e6 cells. In addition, in “in vitro [10]” (fraction unbound in assay assumed 0.4 or 0.2), the “Pred. in vivo CLu from Heps” value is on record as 460 ^h mL/min/kg. The Vd is 3.6 L/kg in series [11] (CF1 mdr1a P-gp deficient (CF1-Abcb1amds), CF1^PGP-KO mice); 3.2 L/kg in series [11] (CF1 wild type, CF1^WT mice); 2.6 L/kg in the series “Mouse blood PK (BALB/c)” (female, BALB/c, mouse, in vivo, iv). Further, the “Extraction Ratio (% of HBF)” value is recorded as 27 (21-34) % in the series with P-gp (CF1^PGP-KO mice) and 39 (46-33) % with P-gp (CF1^WT mice). Further, the Cltb in the series with P-gp (CF1^PGP-KO mice) is 24 mL/min/kg and 24 (31-19) mL/min/kg; with P-gp (CF1^WT mice) it was 35 mL/min/kg and 35 (42-30) mL/min/kg. For the same molecule, in series [12], the “CH1^doxR/CH1^WT (fold resistance)” value is listed as 8.4. Besides, in the series “physchem [13]”, the chromatographic logD was 1.9. In “physchem [14]”, this molecule gave a solubility (kinetic) at 2 h, 100 µM of 80 µM (≈ 46.4 µg/mL). The molecule also came in with an Fmax in “Mouse blood PK (BALB/c)” (BALB/c mice) of 62%. Besides, the “iv Cltb” value in “Mouse blood PK (BALB/c)” (BALB/c mice, iv 5 mg/kg (18: 1 mg/kg), 90% CI) is recorded as 34 (36–32) mL/min/kg. Also, in the series “Mouse blood PK (BALB/c)” (BALB/c mice, po, AUC^inf/24*fub), the “Free Cav^0–24h” value is listed as 0.66 nM. Moreover, the CLu in the series “Mouse blood PK (BALB/c)” (BALB/c mice, CLtb/fub) was 1100 mL/min/kg. Also, the Vdu in the series “Mouse blood PK (BALB/c)” (BALB/c mice, Vss/fub) was found to be 80 L/kg. Besides, the extraction ratio in “Mouse blood PK (BALB/c)” (BALB/c mice, hepatic blood flow 90 mL/min/kg) was 38%. The molecule further showed a half-life at 24 h in “Mouse blood PK (BALB/c)” (female, BALB/c, mouse, in vivo, iv, 5 mg/kg) of 72 min. Further, the Cmax in “Mouse blood PK (BALB/c)” (setting [16]) amounted to 130 nM. For the same molecule, the Tmax at 24 h in “Mouse blood PK (BALB/c)” (setting [16]) was 1.7 h. Further, in the series “Mouse blood PK (BALB/c)” (setting [16]), the bioavailability at 24 h was 11%. Moreover, the AUC in the series “Mouse blood PK (BALB/c)” (female, BALB/c, mouse, in vivo, po, 5 mg/kg, AUCu^0–6h, BALB/c mice, AUC*fub) was determined as 0.014 µM·h; in “Mouse blood PK (BALB/c)” (female, BALB/c, mouse, in vivo, po, 5 mg/kg, po AUC^0–6h, BALB/c mice, po 5 mg/kg, 90% CI), 0.43 µM·h. In addition, the fub in [6] was 0.032. For the same molecule, the “Plasma, fup” value in series [6] is given as 0.042 (0.071-0.024). In addition, in [6] (female, BALB/c, mouse, plasma), the blood plasma ratio at 30 min, 1 µM turned out to be 1.3.
As for `COc1cccc2c1C(=O)c1c(O)c3c(c(O)c1C2=O)C[C@@](O)(C(=O)CO)C[C@@H]3O[C@H]1C[C@H](N)[C@H](O)[C@H](C)O1` [Doxorubicin], the GI50 in the series on CH1^WT (+ verapamil 2 µM) was determined as 0.3 nM; with CH1^WT (no verapamil), 0.4 nM; in the series on CH1^doxR (Homo sapiens, + verapamil 2 µM), 1.9 nM; in the series on CH1^doxR (Homo sapiens, no verapamil), 310 nM; with CH1^doxR (no verapamil), 305 nM.
Carboplatin: the “SK-OV-3 pGI50 ± SEM (n)” value with SK-OV-3 (96 h, CellTiter-Blue, pGI50 = −log GI50 (M)) is below 4.7. The “pGI50±SEM (n)” value is listed as below 5.0 in the series on OVCAR5, 5.8 in the series on PA1 and below 4.7 with RMG-1. Besides, the “pGI50 across the panel” value in series [15] was below 6.
